Assay results as given in US6737383B1, “Herbicidal oxadiazolidines” (priority 1999, dated 2004).

What was measured:
wild oat = assay: Test B pre/postemergence wild oat; assay type: in vivo, Avena fatua
How it was run: (§1)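 Response is a visual 0-to-10 score relative to untreated plants, where 0 means no effect and 10 means complete control, taken twelve to sixteen days after application. Treatments went onto soil at planting and onto foliage of 1- to 4-leaf plants, using a surfactant-containing non-phytotoxic solvent.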

giant foxtail = assay: Test B pre/postemergence giant foxtail; assay type: in vivo, Setaria faberii
How it was run: as §1

purple nutsedge = assay: Test B pre/postemergence purple nutsedge; assay type: in vivo, Cyperus rotundus
How it was run: as §1

velvetleaf = assay: Test B pre/postemergence velvetleaf; assay type: in vivo, Abutilon theophrasti
How it was run: as §1

sugar beet = assay: Test B pre/postemergence sugar beet; assay type: in vivo, Beta vulgaris
How it was run: as §1

surinam grass = assay: Test B pre/postemergence surinam grass; assay type: in vivo, Brachiaria decumbens
How it was run: as §1

morningglory = assay: Test B pre/postemergence morningglory; assay type: in vivo, Ipomoea hederacea
How it was run: as §1

rape = assay: Test B pre/postemergence rape; assay type: in vivo, Brassica napus
How it was run: as §1

cocklebur = assay: Test B pre/postemergence cocklebur; assay type: in vivo, Xanthium strumarium
How it was run: as §1

pigweed = assay: Test B pre/postemergence pigweed; assay type: in vivo, Amaranthus retroflexus
How it was run: as §1

bedstraw = assay: Test B pre/postemergence bedstraw; assay type: in vivo, Galium aparine
How it was run: as §1

wheat = assay: Test B pre/postemergence wheat; assay type: in vivo, Triticum aestivum
How it was run: as §1

blackgrass = assay: Test B pre/postemergence blackgrass; assay type: in vivo, Alopecurus myosuroides
How it was run: as §1

soybean = assay: Test B pre/postemergence soybean; assay type: in vivo, Glycine max
How it was run: as §1

corn = assay: Test B pre/postemergence corn; assay type: in vivo, Zea mays
How it was run: as §1

crabgrass = assay: Test B pre/postemergence crabgrass; assay type: in vivo, Digitaria sanguinalis
How it was run: as §1

[1] = Postemergence, Rate 62 g/ha, scale of 0 to 10, 0 is no effect, 10 is complete control
[2] = Postemergence, Rate 125 g/ha, scale 0 to 10, 0 is no effect, 10 is complete control
[3] = Postemergence, Rate 500 g/ha, scale 0 to 10, 0 is no effect, 10 is complete control
[4] = Preemergence, Rate 62 g/ha, scale 0 to 10 (0 no effect, 10 complete control)
[5] = Preemergence, Rate 125 g/ha, scale 0 to 10, 0 is no effect, 10 is complete control
[6] = Preemergence, Rate 500 g/ha, scale of 0 to 10 where 0 is no effect and 10 is complete control
[7] = Rate 250 g/ha, Postemergence, scale of 0 to 10 where 0 is no effect and 10 is complete control

Cc1noc(C)c1Cn1c(=O)on(C(=O)N(c2ccc(Cl)cc2)C(C)C)c1=O [Compound 540]
Wild oats plant response rating (wild oat; [1]): 0 | Wild oats plant response rating (wild oat; [2]): 0 | Plant response rating, Wild oats (wild oat; [3]): 2 | Wild oats plant response rating (wild oat; [4]): 0 | Wild oats plant response rating (wild oat; [5]): 2 | Wild oats plant response rating (0 to 10 scale) (wild oat; Preemergence, Rate 250 g/ha): 2 | Wild oats plant response rating (wild oat; [6]): 8 | Plant response rating, Wild oats (wild oat; [7]): 0 | Giant foxtail plant response rating (giant foxtail; [1]): 0 | Giant foxtail plant response rating (giant foxtail; [2]): 0 | Plant response rating, Giant foxtail (giant foxtail; [3]): 3 | Giant foxtail plant response rating (giant foxtail; [4]): 9 | Giant foxtail plant response rating (giant foxtail; [5]): 9 | Giant foxtail plant response rating (0 to 10 scale) (giant foxtail; Preemergence, Rate 250 g/ha): 10 | Giant foxtail plant response rating (giant foxtail; [6]): 10 | Plant response rating, Giant foxtail (giant foxtail; [7]): 0 | Nutsedge plant response rating (purple nutsedge; [1]): 0 | Nutsedge plant response rating (purple nutsedge; [2]): 0 | Plant response rating, Nutsedge (purple nutsedge; [3]): 0 | Nutsedge plant response rating (purple nutsedge; [5]): 0 | Nutsedge plant response rating (0 to 10 scale) (purple nutsedge; Preemergence, Rate 250 g/ha): 0 | Nutsedge plant response rating (purple nutsedge; [6]): 0 | Plant response rating, Nutsedge (purple nutsedge; [7]): 0 | Velvetleaf plant response rating (velvetleaf; [1]): 0 | Velvetleaf plant response rating (velvetleaf; [2]): 0 | Plant response rating, Velvetleaf (velvetleaf; [3]): 1 | Velvetleaf plant response rating (velvetleaf; [4]): 0 | Velvetleaf plant response rating (velvetleaf; [5]): 0 | Velvetleaf plant response rating (0 to 10 scale) (velvetleaf; Preemergence, Rate 250 g/ha): 0 | Velvetleaf plant response rating (velvetleaf; [6]): 0 | Plant response rating, Velvetleaf (velvetleaf; [7]): 0 | Sugarbeets plant response rating (sugar beet; [1]): 0 | Sugarbeets plant response rating (sugar beet; [2]): 2 | Plant response rating, Sugarbeets (sugar beet; [3]): 6 | Sugarbeets plant response rating (sugar beet; [4]): 0 | Sugarbeets plant response rating (sugar beet; [5]): 0 | Sugarbeets plant response rating (0 to 10 scale) (sugar beet; Preemergence, Rate 250 g/ha): 0 | Sugarbeets plant response rating (sugar beet; [6]): 4 | Plant response rating, Sugarbeets (sugar beet; [7]): 6 | B. signalgrass plant response rating (surinam grass; [1]): 0 | B. signalgrass plant response rating (surinam grass; [2]): 0 | Plant response rating, B. signalgrass (surinam grass; [3]): 3 | B. signalgrass plant response rating (surinam grass; [4]): 0 | B. signalgrass plant response rating (surinam grass; [5]): 0 | B. signalgrass plant response rating (0 to 10 scale, 0 is no effect, 10 is complete control) (surinam grass; Preemergence, Rate 250 g/ha): 0 | B. signalgrass plant response rating (surinam grass; [6]): 8 | Plant response rating, B. signalgrass (surinam grass; [7]): 0 | Morningglory plant response rating (morningglory; [1]): 2 | Morningglory plant response rating (morningglory; [2]): 4 | Plant response rating, Morningglory (morningglory; [3]): 6 | Morningglory plant response rating (morningglory; [4]): 0 | Morningglory plant response rating (morningglory; [5]): 0 | Morningglory plant response rating (0 to 10 scale) (morningglory; Preemergence, Rate 250 g/ha): 0 | Morningglory plant response rating (morningglory; [6]): 0 | Plant response rating, Morningglory (morningglory; [7]): 5 | Rape plant response rating (rape; [1]): 0 | Rape plant response rating (rape; [2]): 2 | Rape plant response rating (rape; [4]): 0 | Rape plant response rating (rape; [5]): 0 | Rape plant response rating (0 to 10 scale) (rape; Preemergence, Rate 250 g/ha): 2 | Rape plant response rating (rape; [6]): 7 | Plant response rating, Rape (rape; [7]): 7 | Cocklebur plant response rating (cocklebur; [1]): 0 | Cocklebur plant response rating (cocklebur; [2]): 0 | Plant response rating, Cocklebur (cocklebur; [3]): 0 | Cocklebur plant response rating (cocklebur; [4]): 0 | Cocklebur plant response rating (cocklebur; [5]): 0 | Cocklebur plant response rating (0 to 10 scale) (cocklebur; Preemergence, Rate 250 g/ha): 9 | Cocklebur plant response rating (cocklebur; [6]): 10 | Plant response rating, Cocklebur (cocklebur; [7]): 0 | Redroot pigweed plant response rating (pigweed; [1]): 0 | Redroot pigweed plant response rating (pigweed; [2]): 0 | Plant response rating, Redroot pigweed (pigweed; [3]): 2 | Redroot pigweed plant response rating (pigweed; [4]): 0 | Redroot pigweed plant response rating (pigweed; [5]): 0 | Redroot pigweed plant response rating (0 to 10 scale) (pigweed; Preemergence, Rate 250 g/ha): 3 | Redroot pigweed plant response rating (pigweed; [6]): 10 | Plant response rating, Redroot pigweed (pigweed; [7]): 2 | Bedstraw plant response rating (bedstraw; [1]): 0 | Bedstraw plant response rating (bedstraw; [2]): 3 | Plant response rating, Bedstraw (bedstraw; [3]): 9 | Bedstraw plant response rating (bedstraw; [4]): 0 | Bedstraw plant response rating (bedstraw; [5]): 0 | Bedstraw plant response rating (0 to 10 scale) (bedstraw; Preemergence, Rate 250 g/ha): 0 | Bedstraw plant response rating (bedstraw; [6]): 0 | Plant response rating, Bedstraw (bedstraw; [7]): 10 | Wheat plant response rating (wheat; [1]): 0 | Wheat plant response rating (wheat; [2]): 0 | Plant response rating, Wheat (wheat; [3]): 0 | Wheat plant response rating (wheat; [4]): 0 | Wheat plant response rating (wheat; [5]): 0 | Wheat plant response rating (0 to 10 scale) (wheat; Preemergence, Rate 250 g/ha): 0 | Wheat plant response rating (wheat; [6]): 0 | Plant response rating, Wheat (wheat; [7]): 0 | Blackgrass plant response rating (blackgrass; [1]): 0 | Blackgrass plant response rating (blackgrass; [2]): 0 | Plant response rating, Blackgrass (blackgrass; [3]): 7 | Blackgrass plant response rating (blackgrass; [4]): 0 | Blackgrass plant response rating (blackgrass; [5]): 0 | Blackgrass plant response rating (0 to 10 scale) (blackgrass; Preemergence, Rate 250 g/ha): 0 | Blackgrass plant response rating (blackgrass; [6]): 9 | Plant response rating, Blackgrass (blackgrass; [7]): 2 | Soybean plant response rating (soybean; [1]): 1 | Soybean plant response rating (soybean; [2]): 1 | Plant response rating, Soybean (soybean; [3]): 1 | Soybean plant response rating (soybean; [4]): 0 | Soybean plant response rating (soybean; [5]): 0 | Soybean plant response rating (0 to 10 scale) (soybean; Preemergence, Rate 250 g/ha): 0 | Soybean plant response rating (soybean; [6]): 0 | Plant response rating, Soybean (soybean; [7]): 1 | Corn plant response rating (corn; [1]): 0 | Corn plant response rating (corn; [2]): 0 | Plant response rating, Corn (corn; [3]): 0 | Corn plant response rating (corn; [4]): 0 | Corn plant response rating (corn; [5]): 0 | Corn plant response rating (0 to 10 scale) (corn; Preemergence, Rate 250 g/ha): 0 | Corn plant response rating (corn; [6]): 2 | Plant response rating, Corn (corn; [7]): 0 | Crabgrass plant response rating (crabgrass; [1]): 5 | Crabgrass plant response rating (crabgrass; [2]): 5 | Plant response rating, Crabgrass (crabgrass; [3]): 8 | Crabgrass plant response rating (crabgrass; [4]): 8 | Crabgrass plant response rating (crabgrass; [5]): 9 | Crabgrass plant response rating (0 to 10 scale) (crabgrass; Preemergence, Rate 250 g/ha): 10 | Crabgrass plant response rating (crabgrass; [6]): 10 | Plant response rating, Crabgrass (crabgrass; [7]): 5
